This assay has as its target T1, Glycogen phosphorylase, muscle form (Oryctolagus cuniculus, UniProt P00489).
T1 sequence (P00489 whole entry): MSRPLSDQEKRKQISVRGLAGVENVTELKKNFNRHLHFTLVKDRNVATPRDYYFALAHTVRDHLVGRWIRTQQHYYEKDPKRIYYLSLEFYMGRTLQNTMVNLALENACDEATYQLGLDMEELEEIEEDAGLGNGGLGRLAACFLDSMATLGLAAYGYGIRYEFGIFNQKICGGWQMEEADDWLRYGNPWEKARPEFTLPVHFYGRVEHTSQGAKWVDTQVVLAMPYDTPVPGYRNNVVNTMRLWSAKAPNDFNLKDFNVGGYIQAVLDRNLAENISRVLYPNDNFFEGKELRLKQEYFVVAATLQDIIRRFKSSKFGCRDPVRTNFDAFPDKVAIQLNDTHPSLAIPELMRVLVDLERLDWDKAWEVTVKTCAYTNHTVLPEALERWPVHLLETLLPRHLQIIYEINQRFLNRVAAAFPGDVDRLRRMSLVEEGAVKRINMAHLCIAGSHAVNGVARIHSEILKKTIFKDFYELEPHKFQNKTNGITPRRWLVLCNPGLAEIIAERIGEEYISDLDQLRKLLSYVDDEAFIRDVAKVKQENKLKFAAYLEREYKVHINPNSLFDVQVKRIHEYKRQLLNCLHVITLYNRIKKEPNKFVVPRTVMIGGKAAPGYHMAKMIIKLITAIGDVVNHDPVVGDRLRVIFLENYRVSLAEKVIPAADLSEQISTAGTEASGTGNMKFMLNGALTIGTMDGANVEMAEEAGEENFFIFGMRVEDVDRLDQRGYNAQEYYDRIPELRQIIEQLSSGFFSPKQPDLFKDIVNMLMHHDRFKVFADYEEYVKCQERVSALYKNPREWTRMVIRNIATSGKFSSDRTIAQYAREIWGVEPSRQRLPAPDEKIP
Briefly: Enzyme Inhibition Assay. The settings on record: pH 7.2; 22 °C. The method, then:
The activity of the compounds is determined by measuring the inhibitory effect of the compounds in the direction of glycogen synthesis, the conversion of glucose-1-phosphate into glycogen with the release of inorganic phosphate, which was monitored using microplate reader (BIO-RAD). […] The IC50 values were estimated by fitting the inhibition data to a dose dependent curve using a logistic derivative equation.

For `CC1(C)CC[C@]2(C(=O)O[C@@H]3O[C@H](CO)[C@@H](O)[C@H](O)[C@H]3O)CC[C@]3(C)C(=CC[C@@H]4[C@@]5(C)CC[C@H](O)C(C)(C)C5CC[C@]43C)[C@@H]2C1` (stereo partly drawn) [(2S,3R,4S,5S,6R)-3,4,5-trihydroxy-6-(hydroxymethyl)oxan-2-yl (4aS,6aS,6bR,10S,12aR,12bR,14bS)-10-hydroxy-2,2,6a,6b,9,9,12a-heptamethyl-1,2,3,4,4a,5,6,6a,6b,7,8,8a,9,10,11,12,12a,12b,13,14b-icosahydropicene-4a-carboxylate], the IC50 came out at 293 µM.

Molecule `CC1(C)C2CC[C@]3(C)[C@H](C(=O)C=C4[C@@H]5C[C@@](C)(C(=O)O)CC[C@]5(C)CC[C@]43C)[C@@]2(C)CC[C@@H]1O[C@H]1O[C@H](C(=O)O)[C@@H](O)[C@H](O)[C@H]1O[C@@H]1O[C@H](C(=O)O)[C@@H](O)[C@H](O)[C@H]1O` (stereo not given in full) [pentacyclic triterpene compound 7] gave an IC50 of 822 µM.

The molecule `C[C@H]1[C@H](C)CC[C@]2(C(=O)O[C@@H]3O[C@H](CO)[C@@H](O)[C@H](O)[C@H]3O)CC[C@]3(C)C(=CC[C@@H]4[C@@]5(C)C[C@@H](O)[C@H](O)C(C)(C)C5CC[C@]43C)[C@H]12` (stereo partly drawn) [(2S,3R,4S,5S,6R)-3,4,5-trihydroxy-6-(hydroxymethyl)oxan-2-yl (1S,2R,4aS,6aS,6bR,10R,11R,12aR,12bR,14bS)-10,11-dihydroxy-1,2,6a,6b,9,9,12a-heptamethyl-1,2,3,4,4a,5,6,6a,6b,7,8,8a,9,10,11,12,12a,12b,13,14b-icosahydropicene-4a-carboxylate] registered an IC50 of 106 µM.

`CC1(C)C2CC[C@]3(C)[C@H](CC=C4[C@@H]5C[C@@](C)(C(=O)O)CC[C@]5(C)CC[C@]43C)[C@@]2(C)CC[C@@H]1O` (stereo partly drawn) [(2S,4aS,6aS,6bR,10S,12aR,12bR,14bR)-10-hydroxy-2,4a,6a,6b,9,9,12a-heptamethyl-1,2,3,4,4a,5,6,6a,6b,7,8,8a,9,10,11,12,12a,12b,13,14b-icosahydropicene-2-carboxylic acid]: the midpoint of inhibition, the IC50, lay at 82 µM.

`C[C@H]1[C@H](C)CC[C@]2(C(=O)O[C@@H]3O[C@H](CO)[C@@H](O)[C@H](O)[C@H]3O)CC[C@]3(C)C(=CC[C@@H]4[C@@]5(C)CC[C@H](O)C(C)(C)C5CC[C@]43C)[C@H]12` (stereo not given in full) [pentacyclic triterpene compound 19] showed an IC50 of 97 µM.

On to `C[C@H]1[C@H](C)CC[C@]2(C(=O)O)CC[C@]3(C)C(=CC[C@@H]4[C@@]5(C)CC[C@@H](O)C(C)(C)C5CC[C@]43C)[C@H]12` (stereo partly drawn) [(1S,2R,4aS,6aS,6bR,10R,12aR,12bR,14bS)-10-hydroxy-1,2,6a,6b,9,9,12a-heptamethyl-1,2,3,4,4a,5,6,6a,6b,7,8,8a,9,10,11,12,12a,12b,13,14b-icosahydropicene-4a-carboxylic acid], for which 19 µM corresponded to half-maximal inhibition (IC50).

Molecule `CC1(C)CC[C@]2(C(=O)O)CC[C@]3(C)C(=CC[C@@H]4[C@@]5(C)CCC(=O)C(C)(C)C5CC[C@]43C)[C@@H]2C1` (stereo not given in full) [pentacyclic triterpene compound 6] yielded an IC50 of 18 µM.

The molecule `CC1(C)C2CC[C@]3(C)[C@H](C(=O)C=C4[C@@H]5C[C@@](C)(C(=O)O)CC[C@]5(C)CC[C@]43C)[C@@]2(C)CC[C@@H]1O` (stereo partly drawn) [(2S,4aS,6aS,6bR,10S,12aS,12bR,14bR)-10-hydroxy-2,4a,6a,6b,9,9,12a-heptamethyl-13-oxo-1,2,3,4,4a,5,6,6a,6b,7,8,8a,9,10,11,12,12a,12b,13,14b-icosahydropicene-2-carboxylic acid] registered a half-maximal inhibitory concentration (IC50) of 66 µM.

`C[C@H]1[C@H](C)CC[C@]2(C(=O)O)CC[C@]3(C)C(=CC[C@@H]4[C@@]5(C)CC[C@H](O)C(C)(C)C5CC[C@]43C)[C@H]12` (stereo partly drawn) [(1S,2R,4aS,6aS,6bR,10S,12aR,12bR,14bS)-10-hydroxy-1,2,6a,6b,9,9,12a-heptamethyl-1,2,3,4,4a,5,6,6a,6b,7,8,8a,9,10,11,12,12a,12b,13,14b-icosahydropicene-4a-carboxylic acid] registered an IC50 of 9 µM. This IC50 lies about 7.3-fold lower than the previous one.

`C[C@H]1[C@H](C)CC[C@]2(C(=O)O)CC[C@]3(C)C(=CC[C@@H]4[C@@]5(C)CCC(=O)C(C)(C)C5CC[C@]43C)[C@H]12` (stereo partly drawn) [(1S,2R,4aS,6aS,6bR,12aR,12bR,14bS)-1,2,6a,6b,9,9,12a-heptamethyl-10-oxo-1,2,3,4,4a,5,6,6a,6b,7,8,8a,9,10,11,12,12a,12b,13,14b-icosahydropicene-4a-carboxylic acid] displayed an IC50 of 57 µM.

For the origin of these results see BindingDB's records for doi:10.1021/jm8000949 (China Pharmaceutical University, 2008).
